Measurements published in ChEMBL document CHEMBL2040728, “New substituted 4H-chromenes as anticancer agents” (Bioorg Med Chem Lett, 2012).
pIC50: −log10 of the molar value.

Key:
HCT-15 = experiment: Cytotoxicity against human HCT15 cells assessed as growth at 10 uM; assay type: functional; conditions: read-out: Activity
Malme-3M = experiment: Cytotoxicity against human MALME-3M cells assessed as growth at 10 uM; assay type: functional; conditions: read-out: Activity
OVCAR-4 = experiment: Cytotoxicity against human OVCAR4 cells assessed as growth at 10 uM; assay type: functional; conditions: read-out: Activity
COLO 205 = experiment: Cytotoxicity against human COLO205 cells assessed as growth at 10 uM; assay type: functional; conditions: read-out: Activity
[1] = Cytotoxicity against mouse primary astrocytes after 5 days by MTT assay; assay type: cell-based; conditions: Astrocyte, 120 h
[2] = Antiproliferative activity against human U87 cells after 5 days by MTT assay; assay type: functional, cell-based, U-87MG ATCC; conditions: U-87 MG, 120 h
NCI-H23 = experiment: Cytotoxicity against human NCI-H23 cells assessed as growth at 10 uM; assay type: functional; conditions: read-out: Activity
TK-10 = experiment: Cytotoxicity against human TK10 cells assessed as growth at 10 uM; assay type: functional; conditions: read-out: Activity
UO-31 = experiment: Cytotoxicity against human UO31 cells assessed as growth at 10 uM; assay type: functional; conditions: read-out: Activity
OVCAR-3 = experiment: Cytotoxicity against human OVCAR3 cells assessed as growth at 10 uM; assay type: functional; conditions: read-out: Activity
A549 = experiment: Cytotoxicity against human A549 cells assessed as growth at 10 uM; assay type: functional; conditions: read-out: Activity
[3] = Antiproliferative activity against human A172 cells after 5 days by MTT assay; assay type: functional, cell-based; conditions: A 172, 120 h
K562 = experiment: Cytotoxicity against human K562 cells assessed as growth at 10 uM; assay type: functional; conditions: read-out: Activity
EKVX = experiment: Cytotoxicity against human EKVX cells assessed as growth at 10 uM; assay type: functional; conditions: read-out: Activity
HOP-62 = experiment: Cytotoxicity against human HOP62 cells assessed as growth at 10 uM; assay type: functional; conditions: read-out: Activity
SNB-75 = experiment: Cytotoxicity against human SNB75 cells assessed as growth at 10 uM; assay type: functional; conditions: read-out: Activity
PC-3 [4] = experiment: Antiproliferative activity against human PC3 cells after 96 hrs by SRB assay; assay type: functional, cell-based; conditions: PC-3, 96 h
CAKI-1 = experiment: Cytotoxicity against human Caki1 cells assessed as growth at 10 uM; assay type: functional; conditions: read-out: Activity
KM12 = experiment: Cytotoxicity against human KM12 cells assessed as growth at 10 uM; assay type: functional; conditions: read-out: Activity
HL-60(TB) = experiment: Cytotoxicity against human HL-60(TB) cells assessed as growth at 10 uM; assay type: functional; conditions: read-out: Activity
OVCAR-8 = experiment: Cytotoxicity against human OVCAR8 cells assessed as growth at 10 uM; assay type: functional; conditions: read-out: Activity
HCT-116 = experiment: Cytotoxicity against human HCT116 cells assessed as growth at 10 uM; assay type: functional; conditions: read-out: Activity
[5] = Antiproliferative activity against human WM164 cells after 48 hrs by SRB assay; assay type: functional, cell-based; conditions: WM164, 48 h
[6] = Antiproliferative activity against human paclitaxel-resistant PC3-TxR cells after 96 hrs by SRB assay; assay type: functional, cell-based
SW-620 = experiment: Cytotoxicity against human SW620 cells assessed as growth at 10 uM; assay type: functional; conditions: read-out: Activity
MDA-MB-435 = experiment: Cytotoxicity against human MDA-MB-435 cells assessed as growth at 10 uM; assay type: functional; conditions: read-out: Activity
SK-MEL-5 = experiment: Cytotoxicity against human SK-MEL-5 cells assessed as growth at 10 uM; assay type: functional; conditions: read-out: Activity
NCI-H522 = experiment: Cytotoxicity against human NCI-H522 cells assessed as growth at 10 uM; assay type: functional; conditions: read-out: Activity
U-251 = experiment: Cytotoxicity against human U251 cells assessed as growth at 10 uM; assay type: functional; conditions: read-out: Activity
[7] = Antiproliferative activity against human LN18 cells after 5 days by MTT assay; assay type: functional, cell-based; conditions: LN-18, 120 h
M14 = experiment: Cytotoxicity against human M14 cells assessed as growth at 10 uM; assay type: functional; conditions: read-out: Activity
NCI-H460 = experiment: Cytotoxicity against human NCI-H460 cells assessed as growth at 10 uM; assay type: functional; conditions: read-out: Activity
HCC 2998 = experiment: Cytotoxicity against human HCC2998 cells assessed as growth at 10 uM; assay type: functional; conditions: read-out: Activity
NCI/ADR-RES = experiment: Cytotoxicity against human NCI/ADR-RES cells assessed as growth at 10 uM; assay type: functional; conditions: read-out: Activity
[8] = Cytotoxicity against human Hs 578T cells assessed as growth at 10 uM; assay type: functional; conditions: read-out: Activity
SNB-19 = experiment: Cytotoxicity against human SNB19 cells assessed as growth at 10 uM; assay type: functional; conditions: read-out: Activity
NCI-H226 = experiment: Cytotoxicity against human NCI-H226 cells assessed as growth at 10 uM; assay type: functional; conditions: read-out: Activity
MOLT-4 = experiment: Cytotoxicity against human MOLT4 cells assessed as growth at 10 uM; assay type: functional; conditions: read-out: Activity
CCRF-CEM = experiment: Cytotoxicity against human CCRF-CEM cells assessed as growth at 10 uM; assay type: functional; conditions: read-out: Activity
LNCaP = experiment: Antiproliferative activity against human LNCAP cells after 96 hrs by SRB assay; assay type: functional, cell-based
786-0 = experiment: Cytotoxicity against human 786-0 cells assessed as growth at 10 uM; assay type: functional; conditions: read-out: Activity
OVCAR-5 = experiment: Cytotoxicity against human OVCAR5 cells assessed as growth at 10 uM; assay type: functional; conditions: read-out: Activity
SK-MEL-28 = experiment: Cytotoxicity against human SK-MEL-28 cells assessed as growth at 10 uM; assay type: functional; conditions: read-out: Activity
NCI-H322M = experiment: Cytotoxicity against human NCI-H322M cells assessed as growth at 10 uM; assay type: functional; conditions: read-out: Activity
SK-OV-3 = experiment: Cytotoxicity against human SKOV3 cells assessed as growth at 10 uM; assay type: functional; conditions: read-out: Activity
SN12C = experiment: Cytotoxicity against human SN12C cells assessed as growth at 10 uM; assay type: functional; conditions: read-out: Activity
RXF 393 = experiment: Cytotoxicity against human RXF393 cells assessed as growth at 10 uM; assay type: functional; conditions: read-out: Activity
MDA-MB-468 = experiment: Cytotoxicity against human MDA-MB-468 cells assessed as growth at 10 uM; assay type: functional; conditions: read-out: Activity
T47D = experiment: Cytotoxicity against human T47D cells assessed as growth at 10 uM; assay type: functional; conditions: read-out: Activity
UACC-257 = experiment: Cytotoxicity against human UACC257 cells assessed as growth at 10 uM; assay type: functional; conditions: read-out: Activity
MDA-MB-231 = experiment: Cytotoxicity against human MDA-MB-231 cells assessed as growth at 10 uM; assay type: functional; conditions: read-out: Activity
HT-29 = experiment: Cytotoxicity against human HT-29 cells assessed as growth at 10 uM; assay type: functional; conditions: read-out: Activity
IGROV-1 = experiment: Cytotoxicity against human IGROV1 cells assessed as growth at 10 uM; assay type: functional; conditions: read-out: Activity
UACC-62 = experiment: Cytotoxicity against human UACC62 cells assessed as growth at 10 uM; assay type: functional; conditions: read-out: Activity
SF-539 = experiment: Cytotoxicity against human SF539 cells assessed as growth at 10 uM; assay type: functional; conditions: read-out: Activity
BT-549 = experiment: Cytotoxicity against human BT549 cells assessed as growth at 10 uM; assay type: functional; conditions: read-out: Activity
LOX IMVI = experiment: Cytotoxicity against human LOXIMVI cells assessed as growth at 10 uM; assay type: functional; conditions: read-out: Activity
SF-268 = experiment: Cytotoxicity against human SF268 cells assessed as growth at 10 uM; assay type: functional; conditions: read-out: Activity
MCF7 = experiment: Cytotoxicity against human MCF7 cells assessed as growth at 10 uM; assay type: functional; conditions: read-out: Activity
RPMI-8226 = experiment: Cytotoxicity against human RPMI8226 cells assessed as growth at 10 uM; assay type: functional; conditions: read-out: Activity
PC-3 [9] = experiment: Cytotoxicity against human PC3 cells assessed as growth at 10 uM; assay type: functional; conditions: read-out: Activity
SF-295 = experiment: Cytotoxicity against human SF295 cells assessed as growth at 10 uM; assay type: functional; conditions: read-out: Activity
SK-MEL-2 = experiment: Cytotoxicity against human SK-MEL-2 cells assessed as growth at 10 uM; assay type: functional; conditions: read-out: Activity
DU-145 = experiment: Cytotoxicity against human DU145 cells assessed as growth at 10 uM; assay type: functional; conditions: read-out: Activity
HOP-92 = experiment: Cytotoxicity against human HOP92 cells assessed as growth at 10 uM; assay type: functional; conditions: read-out: Activity
ACHN = experiment: Cytotoxicity against human ACHN cells assessed as growth at 10 uM; assay type: functional; conditions: read-out: Activity
A-375 = experiment: Antiproliferative activity against human A375 cells after 48 hrs by SRB assay; assay type: functional, cell-based; conditions: A-375, 48 h
T98G = experiment: Antiproliferative activity against human T98G cells after 5 days by MTT assay; assay type: functional, cell-based; conditions: 120 h

With `CN(C)c1ccc2c(c1)OC(N)=C(C#N)C2c1cccc2c(F)cccc12` (configuration not stated) the growth at 10 µM (HCT-15) was 6.89%, the growth at 10 µM (Malme-3M) was 49.6% and the growth at 10 µM (OVCAR-4) was 27.3%. For the same compound, the growth at 10 µM (COLO 205) was -38.1%, the pIC50 [1] was 5.02 and the pIC50 [2] was 7.20. For the same compound, the growth at 10 µM (NCI-H23) was -0.47%, the growth at 10 µM (TK-10) was 45.8% and the growth at 10 µM (UO-31) was 49.4%. It also gave a growth at 10 µM (OVCAR-3) of -35.4%, a growth at 10 µM (A549) of 11.5% and a pIC50 [3] of 7.68. It also gave a growth at 10 µM (K562) of 6.85%, a growth at 10 µM (EKVX) of 36.7% and a growth at 10 µM (HOP-62) of 39.8%. It also gave a growth at 10 µM (SNB-75) of 22.3%, a pIC50 (PC-3 [4]) of 6.38 and a growth at 10 µM (CAKI-1) of 22.9%. For the same compound, the growth at 10 µM (KM12) was -0.79%, the growth at 10 µM (HL-60(TB)) was -18.4% and the growth at 10 µM (OVCAR-8) was -23.4%. The growth at 10 µM (HCT-116) was -5.99%, the pIC50 [5] was 6.66 and the pIC50 [6] was 6.72. The growth at 10 µM (SW-620) was 23.5%, the growth at 10 µM (MDA-MB-435) was -32.4% and the growth at 10 µM (SK-MEL-5) was 13.7%. For the same compound, the growth at 10 µM (NCI-H522) was -17.5%, the growth at 10 µM (U-251) was 6.44% and the pIC50 [7] was 7.09. The growth at 10 µM (M14) was -1.53%, the growth at 10 µM (NCI-H460) was 1.28% and the growth at 10 µM (HCC 2998) was 7.74%. It also gave a growth at 10 µM (NCI/ADR-RES) of -6.17%, a growth at 10 µM [8] of 19.2% and a growth at 10 µM (SNB-19) of 39%. For the same compound, the growth at 10 µM (NCI-H226) was 0%, the growth at 10 µM (MOLT-4) was 13.9% and the growth at 10 µM (CCRF-CEM) was 11.3%. The pIC50 (LNCaP) was 6.60, the growth at 10 µM (786-0) was 16.8% and the growth at 10 µM (OVCAR-5) was 27.6%. For the same compound, the growth at 10 µM (SK-MEL-28) was 54.1%, the growth at 10 µM (NCI-H322M) was 45.4% and the growth at 10 µM (SK-OV-3) was 5.75%. It also gave a growth at 10 µM (SN12C) of 16.4%, a growth at 10 µM (RXF 393) of 7.11% and a growth at 10 µM (MDA-MB-468) of 27.6%. The growth at 10 µM (T47D) was 61.8%, the growth at 10 µM (UACC-257) was 51.5% and the growth at 10 µM (MDA-MB-231) was 31.9%. The growth at 10 µM (HT-29) was -3.8%, the growth at 10 µM (IGROV-1) was 32.3% and the growth at 10 µM (UACC-62) was 38.9%. The growth at 10 µM (SF-539) was -7.29%, the growth at 10 µM (BT-549) was -12.8% and the growth at 10 µM (LOX IMVI) was 5.96%. For the same compound, the growth at 10 µM (SF-268) was 24.8%, the growth at 10 µM (MCF7) was 13.3% and the growth at 10 µM (RPMI-8226) was 20.5%. The growth at 10 µM (PC-3 [9]) was 14.4%, the growth at 10 µM (SF-295) was 8.13% and the growth at 10 µM (SK-MEL-2) was 27.9%. The growth at 10 µM (DU-145) was -16.5%, the growth at 10 µM (HOP-92) was -2.42% and the growth at 10 µM (ACHN) was 27.6%. The pIC50 (A-375) was 6.89.
Compound `Cn1nnc2c(C(N)=O)ncn2c1=O` [TEMOZOLOMIDE] has a pIC50 [1] of less than 3.00, a pIC50 [2] of 4.31 and a pIC50 (T98G) of 3.24. It also gave a pIC50 [3] of 4.19 and a pIC50 [7] of 3.41.
